Calls of active or inactive are those of the source. The rule behind the calls is not given here.
Tests used:
Cell membrane [1] = assay: Induction of cytoplasmic membrane disruption in Escherichia coli 25922 assessed as increase in fluorescence intensity measured upto 30 mins by DiSC3-5 probe based assay; type: cell membranes; settings: dose 2-64 µM
Pseudomonas aeruginosa [2] = assay: Antimicrobial activity against Pseudomonas aeruginosa 27853 assessed as absence bacterial growth measured after 18 to 24 hrs incubation by NCCLS method; type: functional; settings: time 18-24 hrs
Escherichia coli [3] = assay: Antimicrobial activity against Escherichia coli 25922 assessed as absence bacterial growth measured after 18 to 24 hrs incubation in presence of MgCl2 by NCCLS method; type: functional; settings: time 18-24 hrs
Escherichia coli [4] = assay: Antimicrobial activity against Escherichia coli 25922 assessed as absence bacterial growth measured after 18 to 24 hrs incubation in presence of KCl by NCCLS method; type: functional; settings: time 18-24 hrs
Staphylococcus aureus [5] = assay: Inhibition of respiratory chain dehydrogenase activity in mid-log phase Staphylococcus aureus 29213 measured after 4 hrs by Red-tetraazoline based spectrophotometry assay
[6] = Cytotoxicity against mouse RAW264.7 cells assessed as cell survival rate at 32 to 64 uM measured after 8 hrs by MTT assay relative to control; type: toxicity, cell-based; settings: dose 32-64 µM, read-out: Activity
Bacillus cereus [7] = assay: Antimicrobial activity against Bacillus cereus 1.932 assessed as absence bacterial growth measured after 18 to 24 hrs incubation by NCCLS method; type: functional; settings: time 18-24 hrs
Listeria monocytogenes [8] = assay: Antimicrobial activity against Listeria monocytogenes 1.10753 assessed as bacterial killing measured after 16 hrs incubation; type: functional
[9] = Antimicrobial activity against Salmonella pullorum C7913 assessed as bacterial killing measured after 16 hrs incubation; type: functional, Salmonella enterica subsp. enterica serovar Pullorum; settings: Salmonella enterica
[10] = Cytotoxicity against mouse RAW264.7 cells assessed as cell survival rate measured after 8 hrs by MTT assay; type: toxicity, cell-based
Staphylococcus aureus [11] = assay: Effect on inner membrane fluidity in Staphylococcus aureus 29213 assessed as reduction in intracellular membrane fluidity by measuring fluorescence intensity of Laurdan-GP after 60 mins by spectrophotometry; type: functional, organism-based
Salmonella typhimurium [12] = assay: Antimicrobial activity against Salmonella typhimurium C7731 assessed as absence bacterial growth measured after 18 to 24 hrs incubation by NCCLS method; type: functional, Salmonella enterica subsp. enterica serovar Typhimurium; settings: Salmonella enterica, time 18-24 hrs
Enterococcus faecalis = assay: Antimicrobial activity against Enterococcus faecalis 29212 assessed as bacterial killing measured after 16 hrs incubation; type: functional
Escherichia coli [13] = assay: Outer membrane permeabilization/cell wall in Escherichia coli 25922 assessed as fluorescence intensity of NPN measured at 2 to 128 uM after 1 hr by spectrophotometry; type: functional, organism-based; settings: dose 2-128 µM
Escherichia coli [14] = assay: Effect on inner membrane fluidity in Escherichia coli 25922 assessed as reduction in intracellular membrane fluidity by measuring fluorescence intensity of Laurdan-GP after 60 mins by spectrophotometry; type: functional, organism-based
[15] = test system: Staphylococcus epidermidis; assay: Antimicrobial activity against Staphylococcus epidermidis 12228 assessed as absence bacterial growth measured after 18 to 24 hrs incubation by NCCLS method; type: functional; settings: time 18-24 hrs
[16] = Hemolytic activity in human RBC at effective concentration at 128 uM measured after 1 hr by microplate reader relative to control; type: toxicity, cell-based, Erythrocyte; settings: human red blood cells (erythrocytes), read-out: Activity
Pseudomonas aeruginosa [17] = assay: Antimicrobial activity against Pseudomonas aeruginosa 27853 assessed as bacterial killing measured after 16 hrs incubation; type: functional
Escherichia coli [18] = assay: Antibacterial activity against Escherichia coli 25922 assessed as absence bacterial growth measured after 18 to 24 hrs incubation at pH 10 by NCCLS method; type: functional; settings: time 18-24 hrs
[19] = Cytotoxicity against porcine IPEC-J2 cells assessed as cell survival rate measured after 8 hrs by MTT assay; type: toxicity, cell-based, Sus scrofa; settings: pig
Escherichia coli [20] = assay: Inhibition of respiratory chain dehydrogenase activity in mid-log phase Escherichia coli 25922 measured after 4 hrs by Red-tetraazoline based spectrophotometry assay
Escherichia coli [21] = assay: Antimicrobial activity against Escherichia coli 25922 assessed as bacterial killing measured after 16 hrs incubation; type: functional
Staphylococcus aureus [22] = assay: Induction of morphological changes in Staphylococcus aureus 29213 assessed as changes in cell surface by measuring signs of disruption by using scanning electron microscopy; type: functional, organism-based
Escherichia coli [23] = assay: Antibacterial activity against Escherichia coli 25922 assessed as absence bacterial growth measured after 12 hrs treated with H2O2; type: functional
Escherichia coli [24] = assay: Antimicrobial activity against Escherichia coli 25922 assessed as absence bacterial growth measured after 18 to 24 hrs incubation in presence of NaCl by NCCLS method; type: functional; settings: time 18-24 hrs
Staphylococcus aureus [25] = assay: Antibacterial activity against Staphylococcus aureus 29213 assessed as bactericidal rate by measuring reduction in bacterial count at 1 times MBC concentration measured at 15 secs by time-kill kinetic assay; type: functional; settings: time 15 sec; 15 s
Bacillus cereus [26] = assay: Antimicrobial activity against Bacillus cereus 1.932 assessed as bacterial killing measured after 16 hrs incubation; type: functional
Acinetobacter baumannii = assay: Antimicrobial activity against Acinetobacter baumannii 1.6769 assessed as bacterial killing measured after 16 hrs incubation; type: functional
DNA = assay: Binding affinity to DNA in Staphylococcus aureus 29213 incubated for 1 hr by electrophoresis; type: nucleic-acid assay
[27] = test system: Staphylococcus epidermidis; assay: Antimicrobial activity against Staphylococcus epidermidis 12228 assessed as bacterial killing measured after 16 hrs incubation; type: functional
[28] = Antimicrobial activity against Salmonella pullorum C7913 assessed as absence bacterial growth measured after 18 to 24 hrs incubation by NCCLS method; type: functional, Salmonella enterica subsp. enterica serovar Pullorum; settings: Salmonella enterica, time 18-24 hrs
Salmonella typhimurium [29] = assay: Antimicrobial activity against Salmonella typhimurium C7731 assessed as bacterial killing measured after 16 hrs incubation; type: functional, Salmonella enterica subsp. enterica serovar Typhimurium; settings: Salmonella enterica
[30] = Cytotoxicity against human HEK-293T cells assessed as cell survival rate at 64 uM measured after 8 hrs by MTT assay relative to control; type: toxicity, cell-based; settings: read-out: Activity
Escherichia coli [31] = assay: Antibacterial activity against Escherichia coli 25922 assessed as absence bacterial growth measured after 18 to 24 hrs incubation at pH 4 by NCCLS method; type: functional; settings: time 18-24 hrs
Cell membrane [32] = assay: Induction of membrane disruption in Escherichia coli 25922 assessed as increase in extracellular ATP level at 4 to 32 uM measured after 1 hr; type: cell membranes; settings: dose 4-32 µM
Escherichia coli [33] = assay: Antimicrobial activity against Escherichia coli 25922 assessed as absence bacterial growth measured after 18 to 24 hrs incubation in presence of 12.5% serum by NCCLS method; type: functional; settings: time 18-24 hrs
Cell membrane [34] = assay: Induction of cytoplasmic membrane disruption in Escherichia coli 25922 assessed as increase in fluorescence intensity at 2 to 64 uM by DiSC3-5 probe based assay; type: cell membranes; settings: dose 2-64 µM, time <= 30.0 min, TDE = time-dependent effect
Staphylococcus aureus [35] = assay: Antimicrobial activity against Staphylococcus aureus 29213 assessed as bacterial killing measured after 16 hrs incubation; type: functional
[36] = Cytotoxicity against human HEK-293T cells assessed as cell survival rate measured after 8 hrs by MTT assay; type: toxicity, cell-based
Erythrocyte = assay: Hemolytic activity in human RBC at effective concentration measured after 1 hr by microplate reader analysis; type: toxicity, cell-based
Escherichia coli [37] = assay: Antimicrobial activity against Escherichia coli 25922 assessed as absence bacterial growth measured after 18 to 24 hrs incubation in presence of 50% serum by NCCLS method; type: functional; settings: time 18-24 hrs
Listeria monocytogenes [38] = assay: Antimicrobial activity against Listeria monocytogenes 1.10753 assessed as absence bacterial growth measured after 18 to 24 hrs incubation by NCCLS method; type: functional; settings: time 18-24 hrs
Staphylococcus aureus [39] = assay: Induction of morphological changes in Staphylococcus aureus 29213 assessed as cavity between cell wall and cytoplasmic membrane by using transmission electron microscopy; type: functional, organism-based

## H-GKLWLKAGKLWLKGGKLWLKG-NH2
Cell membrane [1]
  Activity: Dose-Dependent Effect
Pseudomonas aeruginosa [2]
  MIC: 4 µM
Escherichia coli [3]
  MIC: 8 µM
Escherichia coli [4]
  MIC: 2 µM
Staphylococcus aureus [5]
  inhibition: Active
[6]
  viability at 8 h, up to 64 µM: 60%
Bacillus cereus [7]
  MIC: 2 µM
Listeria monocytogenes [8]
  MBC: > 32 µM
[9]
  MBC: 1 µM
[10]
  IC50 at 8 h: > 64 µM
Staphylococcus aureus [11]
  Activity: Active
Salmonella typhimurium [12]
  MIC: 8 µM
Enterococcus faecalis
  MBC: 8 µM
Escherichia coli [13]
  permeability: Permeable
Escherichia coli [14]
  Activity: Active
[15]
  MIC: 4 µM
[16]
  hemolysis at 1 h, 128 µM: < 10%
Pseudomonas aeruginosa [17]
  MBC: 8 µM
Escherichia coli [18]
  MIC: 2 µM
[19]
  IC50 at 8 h: > 64 µM
Escherichia coli [20]
  inhibition: Active
Escherichia coli [21]
  MBC: 2 µM
Staphylococcus aureus [22]
  Activity: Active
Escherichia coli [23]
  MIC: 4 µM
Escherichia coli [24]
  MIC: 16 µM
Staphylococcus aureus [25]
  inhibition (INH): 99.99%
Bacillus cereus [26]
  MBC: 2 µM
Acinetobacter baumannii
  MBC: 2 µM
DNA
  Activity: Active
[27]
  MBC: 8 µM
[28]
  MIC: 1 µM
Salmonella typhimurium [29]
  MBC: 32 µM
[30]
  viability at 8 h, 64 µM: > 80%
Escherichia coli [31]
  MIC: > 64 µM
Cell membrane [32]
  Activity: Active
Escherichia coli [33]
  MIC: 16 µM
Cell membrane [34]
  Activity: Tde
Staphylococcus aureus [35]
  MBC: 8 µM
[36]
  IC50 at 8 h: > 64 µM
Erythrocyte
  HC10: > 128 µM
Escherichia coli [37]
  MIC: > 32 µM
Listeria monocytogenes [38]
  MIC: > 32 µM
Staphylococcus aureus [39]
  Activity: Active
